“And” between values parts separate entries of the source, which are not always exact repeats. Identical values can stand only once. Toxic doses and inconclusive results are not listed. Rule as the data show it: active = T/C of 150% or more; inactive = T/C below 125%.
Tested on: L1210 leukemia ip in BDF1 mice, survival T/C
Test: NCI In Vivo Anticancer Drug Screen. Data for tumor model L1210 Leukemia (intraperitoneal) in B6D2F1 (BDF1) mice
Conditions: endpoint: mean survival time, higher = longer survival
Procedure, shortened: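 Tumor cells were implanted, animals were treated, and survival was followed. The result divides the treated measurement by the vehicle-control measurement.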

[1] = dose: 100.0 mg/kg/injection, schedule: Q04DX003 (ip), vehicle: Klucel (hydroxypropylcellulose) (HPC)
[2] = dose: 200.0 mg/kg/injection, schedule: Q04DX003 (ip), vehicle: Klucel (hydroxypropylcellulose) (HPC)
[3] = dose: 400.0 mg/kg/injection, schedule: Q04DX003 (ip), vehicle: Klucel (hydroxypropylcellulose) (HPC)
[4] = dose: 100.0 mg/kg/injection, schedule: Q01DX009 (ip), vehicle: saline with Tween-80
[5] = dose: 100.0 mg/kg/injection, schedule: Q04DX003 (ip), vehicle: saline with Tween-80
[6] = dose: 200.0 mg/kg/injection, schedule: Q04DX003 (ip), vehicle: saline with Tween-80
[7] = dose: 400.0 mg/kg/injection, schedule: Q04DX003 (ip), vehicle: saline with Tween-80
[8] = dose: 100.0 mg/kg/injection, schedule: Q04DX003 (ip), vehicle: saline
[9] = dose: 200.0 mg/kg/injection, schedule: Q04DX003 (ip), vehicle: saline
[10] = dose: 50.0 mg/kg/injection, schedule: Q04DX003 (ip), vehicle: Klucel (hydroxypropylcellulose) (HPC)

Measured: T/C

CCC(O)CNC1CCCCC1 (stereo unspecified)
inactive: dose: 75.0 mg/kg/injection, schedule: Q01DX001 (ip), vehicle: saline 98 % of control | dose: 150.0 mg/kg/injection, schedule: Q01DX001 (ip), vehicle: saline 98 % of control

CCOC(=O)NO
inactive: dose: 27.0 mg/kg/injection, schedule: Q03HX024 (ip), vehicle: saline 95 % of control | dose: 40.0 mg/kg/injection, schedule: Q03HX024 (ip), vehicle: saline 97 % of control | dose: 50.0 mg/kg/injection, schedule: Q01DX Z (ip), vehicle: carboxymethylcellulose (CMC) 93 % of control | dose: 60.0 mg/kg/injection, schedule: Q03HX024 (ip), vehicle: saline 100 % of control | dose: 90.0 mg/kg/injection, schedule: Q03HX024 (ip), vehicle: saline 100 % of control | dose: 100.0 mg/kg/injection, schedule: Q01DX009 (ip), vehicle: saline 97 % of control and 98 % of control | dose: 100.0 mg/kg/injection, schedule: Q01DX Z (ip), vehicle: carboxymethylcellulose (CMC) 109 % of control | dose: 120.0 mg/kg/injection, schedule: Q01DX009 (ip), vehicle: saline 110 % of control | dose: 135.0 mg/kg/injection, schedule: Q03HX024 (ip), vehicle: saline 124 % of control | dose: 180.0 mg/kg/injection, schedule: Q01DX009 (ip), vehicle: saline 119 % of control | dose: 200.0 mg/kg/injection, schedule: Q01DX009 (ip), vehicle: saline 95 % of control and 100 % of control | dose: 400.0 mg/kg/injection, schedule: Q01DX009 (ip), vehicle: saline 102 % of control and 107 % of control | dose: 600.0 mg/kg/injection, schedule: Q01DX009 (ip), vehicle: saline 117 % of control

CC12CCC3(CC1CCC(OC(=O)c1ccccc1)C2)OCCO3 (stereo unspecified)
inactive: dose: 100.0 mg/kg/injection, schedule: Q01DX009 (ip), vehicle: other 93 % of control | dose: 100.0 mg/kg/injection, schedule: Q04DX003 (ip), vehicle: other 108 % of control | dose: 200.0 mg/kg/injection, schedule: Q01DX009 (ip), vehicle: other 95 % of control | dose: 200.0 mg/kg/injection, schedule: Q04DX003 (ip), vehicle: other 106 % of control | dose: 400.0 mg/kg/injection, schedule: Q01DX009 (ip), vehicle: other 90 % of control | dose: 400.0 mg/kg/injection, schedule: Q04DX003 (ip), vehicle: other 95 % of control

O=c1c2ccccc2[nH]c2ccc(Cl)cc12
inactive: dose: 100.0 mg/kg/injection, schedule: Q01DX009 (ip), vehicle: Klucel (hydroxypropylcellulose) (HPC) 92 % of control | [1] 96 % of control | dose: 200.0 mg/kg/injection, schedule: Q01DX009 (ip), vehicle: Klucel (hydroxypropylcellulose) (HPC) 96 % of control | [2] 91 % of control | dose: 400.0 mg/kg/injection, schedule: Q01DX009 (ip), vehicle: Klucel (hydroxypropylcellulose) (HPC) 86 % of control | [3] 100 % of control

CCOC(=O)CCC(NC(=O)c1ccc(N(C)S(=O)(=O)c2ccc(C)cc2)c2ccccc12)C(=O)OCC (stereo unspecified)
inactive: [4] 108 % of control | [5] 97 % of control | dose: 200.0 mg/kg/injection, schedule: Q01DX009 (ip), vehicle: saline with Tween-80 94 % of control | [6] 100 % of control | dose: 400.0 mg/kg/injection, schedule: Q01DX009 (ip), vehicle: saline with Tween-80 92 % of control | [7] 100 % of control

C=NNC(=O)c1ccncc1
inactive: [5] 89 % of control | [6] 94 % of control | [7] 88 % of control

COC(=O)C1(O)CC(=O)CCC1c1ccccc1 (stereo unspecified)
inactive: [1] 105 % of control | [2] 94 % of control | [3] 95 % of control

O=C(O)c1ccccc1C(c1ccccc1)c1ccccc1
inactive: [5] 98 % of control | [6] 93 % of control | [7] 98 % of control

O=C(CCCl)Nc1ccc(S(=O)(=O)Nc2nccs2)cc1
inactive: dose: 100.0 mg/kg/injection, schedule: Q01DX001 (ip), vehicle: other 101 % of control | dose: 200.0 mg/kg/injection, schedule: Q01DX001 (ip), vehicle: other 95 % of control | dose: 400.0 mg/kg/injection, schedule: Q01DX001 (ip), vehicle: other 97 % of control

CC(=O)c1c(C)[nH]c2ccc(NS(=O)(=O)N(C)C)cc12
inactive: dose: 75.0 mg/kg/injection, schedule: Q04DX003 (ip), vehicle: Klucel (hydroxypropylcellulose) (HPC) 96 % of control | dose: 150.0 mg/kg/injection, schedule: Q04DX003 (ip), vehicle: Klucel (hydroxypropylcellulose) (HPC) 102 % of control | dose: 300.0 mg/kg/injection, schedule: Q04DX003 (ip), vehicle: Klucel (hydroxypropylcellulose) (HPC) 100 % of control

CCOC(=O)c1cnc(SC)nc1N(c1ccccc1)c1ccccc1
inactive: [1] 90 % of control | [2] 86 % of control | [3] 95 % of control

Cn1c(=O)c2c(nc(N/N=C/c3ccc(O)cc3)n2C)n(C)c1=O
inactive: dose: 44.0 mg/kg/injection, schedule: Q01DX Z (ip), vehicle: methylcellulose (MC) 94 % of control | dose: 66.0 mg/kg/injection, schedule: Q01DX Z (ip), vehicle: methylcellulose (MC) 97 % of control | dose: 100.0 mg/kg/injection, schedule: Q01DX Z (ip), vehicle: methylcellulose (MC) 96 % of control

CC#CC(O)(C(=O)OC1CCN(C)CC1)C(C)CC (stereo unspecified)
inactive: dose: 50.0 mg/kg/injection, schedule: Q01DX009 (ip), vehicle: saline with Tween-80 92 % of control | [4] 96 % of control | [5] 120 % of control | [6] 102 % of control

CCC1(CCCCBr)OCCO1
inactive: dose: 100.0 mg/kg/injection, schedule: Q01DX001 (ip), vehicle: Klucel (hydroxypropylcellulose) (HPC) 103 % of control | dose: 200.0 mg/kg/injection, schedule: Q01DX001 (ip), vehicle: Klucel (hydroxypropylcellulose) (HPC) 100 % of control | dose: 400.0 mg/kg/injection, schedule: Q01DX001 (ip), vehicle: Klucel (hydroxypropylcellulose) (HPC) 93 % of control

O=C(O)C(Br)C(Br)C(=O)O.[Ag] (stereo unspecified)
inactive: dose: 9.38 mg/kg/injection, schedule: Q01DX001 (ip), vehicle: other 94 % of control | dose: 18.75 mg/kg/injection, schedule: Q01DX001 (ip), vehicle: other 94 % of control

O=C1CCCCC12CCCC2
inactive: dose: 100.0 mg/kg/injection, schedule: Q01DX009 (ip), vehicle: saline sonified 97 % of control | dose: 200.0 mg/kg/injection, schedule: Q01DX009 (ip), vehicle: saline sonified 103 % of control | dose: 400.0 mg/kg/injection, schedule: Q01DX009 (ip), vehicle: saline sonified 93 % of control

COc1ccc(CO/N=C2/CC(NOCc3ccc(OC)cc3)NC(=O)N2)cc1 (stereo unspecified)
inactive: [8] 90 % of control | [9] 90 % of control | dose: 400.0 mg/kg/injection, schedule: Q04DX003 (ip), vehicle: saline 86 % of control

COc1ccc(C(=O)C(C)C(C)=N)c(OCc2ccccc2)c1OC (stereo unspecified)
inactive: dose: 100.0 mg/kg/injection, schedule: Q01DX001 (ip), vehicle: carboxymethylcellulose (CMC) 95 % of control | dose: 200.0 mg/kg/injection, schedule: Q01DX001 (ip), vehicle: carboxymethylcellulose (CMC) 92 % of control | dose: 400.0 mg/kg/injection, schedule: Q01DX001 (ip), vehicle: carboxymethylcellulose (CMC) 92 % of control

O=C1CSC2=NCCN12
inactive: dose: 100.0 mg/kg/injection, schedule: Q01DX001 (ip), vehicle: saline 99 % of control | [8] 93 % of control | dose: 200.0 mg/kg/injection, schedule: Q01DX001 (ip), vehicle: saline 99 % of control | [9] 98 % of control | dose: 400.0 mg/kg/injection, schedule: Q01DX001 (ip), vehicle: saline 92 % of control

CC(C)CC(C=NCC(CCN(C)C)(CC(C)C)c1cccc2ccccc12)(CCN(C)C)c1cccc2ccccc12 (stereo unspecified)
inactive: dose: 12.5 mg/kg/injection, schedule: Q01DX009 (ip), vehicle: Klucel (hydroxypropylcellulose) (HPC) 106 % of control | dose: 12.5 mg/kg/injection, schedule: Q04DX003 (ip), vehicle: Klucel (hydroxypropylcellulose) (HPC) 106 % of control | dose: 25.0 mg/kg/injection, schedule: Q01DX009 (ip), vehicle: Klucel (hydroxypropylcellulose) (HPC) 88 % of control | dose: 25.0 mg/kg/injection, schedule: Q04DX003 (ip), vehicle: Klucel (hydroxypropylcellulose) (HPC) 94 % of control | [10] 92 % of control

O=C(O)c1ccc(/C=N\Nc2ccccc2)cc1
inactive: [10] 95 % of control | [1] 106 % of control | [2] 100 % of control | [3] 97 % of control
